Measured values: PMC11459967 (Antimicrobial Agents and Chemotherapy, 2024)

Tests used:
SARS-CoV-2 Mpro = SARS-CoV-2 Mpro (Severe acute respiratory syndrome coronavirus 2, UniProt P0DTC1); test: biochemical; assay type: biochemical
[1] = system: SARS-CoV-2 (USA-WA1/2020 variant); test: Cytopathic effect (CPE) live virus cell viability assay in Vero-E6 cells; assay type: cell-based; details: for EC50: Severe acute respiratory syndrome coronavirus 2, Vero C1008, 96 h, read-out: EC50 viral CPE assay

`O=C(CN1C(=O)[C@@H](NC(=O)c2ccccc2)COc2ccccc21)N[C@@H](C[C@@H]1CCNC1=O)C(=O)COC(=O)c1c(Cl)cccc1Cl` [Compound 19] gave an IC50 (SARS-CoV-2 Mpro) of 620 ± 48 nM and an EC50 [1] of 25000 ± 5000 nM.
In the case of `O=C(CN1C(=O)C(NC(=O)OCc2ccccc2)COc2ccccc21)NC(CC1CCNC1=O)C(=O)COC(=O)c1c(Cl)cccc1Cl` (centres unmarked) [Compound 1], the IC50 (SARS-CoV-2 Mpro) is reported as 230 ± 18 nM, the “fold less potent (Mpro) than compound 18” value (SARS-CoV-2 Mpro; ratio of Mpro IC50 versus Pfizer lead compound 18) is reported as ~ 20 fold and the “fold reduced in activity compared to 18” value [1] is reported as 2.2 fold. For the same compound, the “fold reduced in activity compared to GC-376” value [1] was 4.1 fold, the EC50 [1] was 7500 ± 2000 nM and the inhibition at 5 µM ([1]; Severe acute respiratory syndrome coronavirus 2, Vero C1008, single treatment, 5 µM of 1, 96 h, three independent experiments, read-out: inhibition of CPE in infected cells) was 19.5 ± 13.7%.
`CCC(CC)COC(=O)[C@H](C)N[P@](=O)(OC[C@H]1O[C@@](C#N)(c2ccc3c(N)ncnn23)[C@H](O)[C@@H]1O)Oc1ccccc1` [Remdesivir, reference compound] was tested, and the EC50 [1] was 2700 ± 500 nM and the inhibition at 1 µM ([1]; Severe acute respiratory syndrome coronavirus 2, Vero C1008, single treatment, 1 µM of remdesivir, 96 h, three independent experiments, read-out: inhibition of CPE in infected cells) was 3.6 ± 3.1%.
`O=C(CN1C(=O)[C@@H](NC(=O)c2ccc3ccccc3n2)COc2ccccc21)N[C@@H](C[C@@H]1CCNC1=O)C(=O)COC(=O)c1c(Cl)cccc1Cl` [Compound 20] was tested, and the IC50 (SARS-CoV-2 Mpro) was 580 ± 40 nM and the EC50 [1] was 44500 ± 7400 nM.
For `COc1cccc2[nH]c(C(=O)N[C@@H](CC(C)C)C(=O)N[C@@H](C[C@@H]3CCNC3=O)C(=O)COC(=O)c3c(Cl)cccc3Cl)cc12` [Compound 18, reference compound], the IC50 (SARS-CoV-2 Mpro) was 11 ± 0.7 nM and the EC50 [1] was 3400 ± 1400 nM.
`O=C(CN1C(=O)[C@@H](NC(=O)OCc2ccccc2)COc2ccccc21)N[C@@H](C[C@@H]1CCNC1=O)C(=O)COc1cc(C(F)(F)F)nn1-c1ccc(F)cc1` [Compound 21] was tested, and the IC50 (SARS-CoV-2 Mpro) was 3100 nM, the “fold less Mpro activity compared to 1” value (SARS-CoV-2 Mpro; ratio of Mpro IC50 versus compound 1) was “more than 10 fold” and the EC50 [1] was 73500 ± 12400 nM.
For `CC(C)C[C@H](NC(=O)OCc1ccccc1)C(=O)N[C@@H](C[C@@H]1CCNC1=O)C(O)S(=O)(=O)O` (some centres unmarked) [GC-376, reference compound], the IC50 (SARS-CoV-2 Mpro) was 18 ± 1.5 nM, the “time to achieve maximum inhibition” value (SARS-CoV-2 Mpro; Mpro enzymatic assay) was at most 10 min and the EC50 [1] was 1800 ± 400 nM.
